Source: patent US8940739B2, “Compound of a reverse-turn mimetic and a production method and use therefor” (JW Pharmaceutical Corporation, priority 2010, dated 2015)
pIC50: −log10 of the molar value.

tested on: MV-4-11 (human, Acute Myeloid Leukemia cell line) cells; assay: Cell growth inhibition assay, GI50 of MV-4-11; assay type: cell-based; conditions: Homo sapiens, MV4-11, 72 h, MV-4-11 cells
Method: The anti-proliferative activity (cell growth inhibition assay) of the compounds according to the present invention against AML (Acute Myeloid Leukemia) cancer cells was measured. […] The lower the GI50 value, the higher the anti-proliferative activity.
A cell growth Inhibition assay was performed to investigate the rate of inhibition of cell proliferation by the compounds of the present invention. MV-4-11 (human, Acute Myeloid Leukemia cell line) cells were cultured in Iscove's modified Dulbecco's medium (IMDM) including 10% fetal bovine serum (FBS), 1× penicillin/streptomycin (10,000 units/ml Penicillin, […] Streptomycin in 0.85% NaCl). MV-4-11 cells were harvested with the IMDM and 5×10^4 cells/well were transferred to each well of 96-well culture plates (Nunc, #167008).
The compounds of Examples 1 to 5 were exposed to serial dilution and duplicated for each concentration. For the serial dilution, the compounds of the present invention were repeatedly diluted with the same volume of media onto 96-well assay block (costar, #3956). After the dilution, each compound was added to each well.
Also, the background absorbance was measured during the treatment with the test compounds by replacing the test compound with IMDM in the negative control plate. The plates were incubated for three days (72 hours) at 37 in the humidified incubator containing 5% CO2. On the last day, 20 µl of a CellTiter 96 Aqueous One Solution (Promega #G3581) was added to the culture in each well and the plates were incubated for a few hours at 37 in the humidified incubator containing 5% CO2. After the incubation, the absorbance of each cell was measured at 490 nm using an EnVision (Perkinelmer, USA).
The GI50 values were calculated using a Prism 3.0 program.

SMILES	GI50 [µM]
C=CCN1CC(=O)N2[C@@H](Cc3ccc(O)cc3)C(=O)N(Cc3cccc4c(-c5ccc(C(=O)NN6C(C)CNCC6C)cc5)cn(C)c34)C[C@@H]2N1C(=O)NCc1ccccc1 (stereo partly drawn) [Compound D-32]	0.0013
C=CCN1CC(=O)N2[C@@H](Cc3ccc(O)cc3)C(=O)N(Cc3cccc4c(C(=O)N5CCN(Cc6ccc(C#N)cc6)CC5)cn(C)c34)C[C@@H]2N1C(=O)NCc1ccccc1 [Compound E-33]	0.009
C=CCN1CC(=O)N2[C@@H](Cc3ccc(O)cc3)C(=O)N(Cc3cccc4c(-c5ccc(NC(=O)N6CC(N7CCC(OC)CC7)C6)cc5)cn(C)c34)C[C@@H]2N1C(=O)NCc1ccccc1 [Compound D-66-1]	0.0014
C=CCN1CC(=O)N2[C@@H](Cc3ccc(O)cc3)C(=O)N(Cc3cccc4c(-c5ccc(NC(=O)c6ccc(-n7ccnc7)nc6)cc5)cn(C)c34)C[C@@H]2N1C(=O)NCc1ccccc1 [Compound D-68]	0.0014
C=CCN1CC(=O)N2[C@@H](Cc3ccc(O)cc3)C(=O)N(Cc3cccc4c(C(=O)N(C)CC(C)(C)CO)cn(C)c34)C[C@@H]2N1C(=O)NCc1ccccc1 [Compound F-8]	0.002
C=CCN1CC(=O)N2[C@@H](Cc3ccc(O)cc3)C(=O)N(Cc3cccc4c(-c5ccc(NC(=O)Nc6ccc(N7CCN(C)CC7)nc6)cc5)cn(C)c34)C[C@@H]2N1C(=O)NCc1ccccc1 [Compound D-78]	0.0015
C=CCN1CC(=O)N2[C@@H](Cc3ccc(O)cc3)C(=O)N(Cc3cccc4c(-c5ccc(C(=O)NN(C)C)cc5)cn(C)c34)C[C@@H]2N1C(=O)NCc1ccccc1 [Compound D-36]	0.0012
C=CCN1CC(=O)N2[C@@H](Cc3ccc(O)cc3)C(=O)N(Cc3cccc4c(-c5ccc(C(C)=O)s5)cn(C)c34)C[C@@H]2N1C(=O)NCc1ccccc1 [Compound H-8]	0.0057
C=CCN1CC(=O)N2[C@@H](Cc3ccc(O)cc3)C(=O)N(Cc3cccc4c(C(=O)N(C)CCNC5CC5)cn(C)c34)C[C@@H]2N1C(=O)NCc1ccccc1 [Compound F-11]	0.0104
C=CCN1CC(=O)N2C(CN(Cc3cccc4c(C(=O)Nc5ccc(N(C)CCCO)nc5)cn(C)c34)C(=O)[C@@H]2Cc2ccc(O)cc2)N1C(=O)NCc1ccccc1 (some centres unmarked) [Compound G-20]	0.0017
C=CCN1CC(=O)N2[C@@H](Cc3ccc(O)cc3)C(=O)N(Cc3cccc4c(C(=O)N5CCN(C6CC6)CC5)cn(C)c34)C[C@@H]2N1C(=O)NCc1ccccc1 [Compound E-17]	0.0045
C=CCN1CC(=O)N2[C@@H](Cc3ccc(O)cc3)C(=O)N(Cc3cccc4c(-c5ccc(C(=O)N6CCCCC6)cc5)cn(C)c34)C[C@@H]2N1C(=O)NCc1ccccc1 [Compound D-4]	0.0014
C=CCN1CC(=O)N2[C@@H](Cc3ccc(O)cc3)C(=O)N(Cc3cccc4c(-c5ccc(NC(=O)N6CCN(C)CC6)nc5)cn(C)c34)C[C@@H]2N1C(=O)NCc1ccccc1 [Compound D-87]	0.0013
C=CCN1CC(=O)N2[C@@H](Cc3ccc(O)cc3)C(=O)N(Cc3cccc4c(C(=O)N5CCN6CCN(CC7CCC7)CC6C5)cn(C)c34)C[C@@H]2N1C(=O)NCc1ccccc1 (some centres unmarked) [Compound E-49]	0.0069
C=CCN1CC(=O)N2[C@@H](Cc3ccc(O)cc3)C(=O)N(Cc3cccc4c(-c5ccc(NC(=O)Nc6ccncn6)cc5)cn(C)c34)C[C@@H]2N1C(=O)NCc1ccccc1 [Compound D-81]	0.0099
C=CCN1CC(=O)N2[C@@H](Cc3ccc(O)cc3)C(=O)N(Cc3cccc4c(C(=O)N5CCN(Cc6ccncc6)CC5)cn(C)c34)C[C@@H]2N1C(=O)NCc1ccccc1 [Compound E-30]	0.0144
C=CCN1CC(=O)N2[C@@H](Cc3ccc(O)cc3)C(=O)N(Cc3cccc4c(-c5ccc(NC(=O)NCC)nc5)cn(C)c34)C[C@@H]2N1C(=O)NCc1ccccc1 [Compound D-94]	0.0015

target: cDNA-expressed human hepatic CYP3A4 (Homo sapiens (Human), UniProt P08684); assay: Measurement of CYP (IC50 of P450 CYP3A4), BFC substrate; assay type: in vitro ADME; conditions: 20 minutes
Method: The compounds of the present invention had lower P450 CYP3A4 inhibitory activity (higher IC50). Lower CYP3A4 inhibitory activity means that the compounds of the present invention cause fewer side-effects from the pharmacological point of view.
This assay was performed in a 200 l volume in 96-well microtiter plates using cDNA-expressed human hepatic CYP3A4 (supersome, BD Gentest™ #456202). As a substrate for CYP3A4, 7-benzyloxy-4-trifluoromethyl-coumarin (BFC) was used. The compounds of Examples 1 to 5 and the substrate BFC were dissolved in 100% acetonitrile. The final volume of acetonitrile of the incubation mixture was less than 1% (volume/volume). A potassium phosphate buffer (pH 7.4, final concentration 0.1M), MgCl2 (final concentration 8.3 mM), EDTA (final concentration 1.67 mM), an inventive compound stock solution, CYP3A4 supersome, and NADPH (final concentration 0.25 mM) were added to each well. The reaction was initiated by adding the substrate (BFC, final concentration 30 µM) at 37. The incubation was performed for 20 minutes and then the reaction was terminated by the addition of 75 μl of acetonitrile: 0.5 M tris-base=4:1 (volume/volume).
Then, a fluorescent signal was measured using a fluorometer. A BFC metabolite, 7-hydroxy-4-trifluoromethyl-coumarin, was measured using an excitation wavelength of 409 nm and an emission wavelength of 530 nm.

Sequence of cDNA-expressed human hepatic CYP3A4 (P08684 whole entry): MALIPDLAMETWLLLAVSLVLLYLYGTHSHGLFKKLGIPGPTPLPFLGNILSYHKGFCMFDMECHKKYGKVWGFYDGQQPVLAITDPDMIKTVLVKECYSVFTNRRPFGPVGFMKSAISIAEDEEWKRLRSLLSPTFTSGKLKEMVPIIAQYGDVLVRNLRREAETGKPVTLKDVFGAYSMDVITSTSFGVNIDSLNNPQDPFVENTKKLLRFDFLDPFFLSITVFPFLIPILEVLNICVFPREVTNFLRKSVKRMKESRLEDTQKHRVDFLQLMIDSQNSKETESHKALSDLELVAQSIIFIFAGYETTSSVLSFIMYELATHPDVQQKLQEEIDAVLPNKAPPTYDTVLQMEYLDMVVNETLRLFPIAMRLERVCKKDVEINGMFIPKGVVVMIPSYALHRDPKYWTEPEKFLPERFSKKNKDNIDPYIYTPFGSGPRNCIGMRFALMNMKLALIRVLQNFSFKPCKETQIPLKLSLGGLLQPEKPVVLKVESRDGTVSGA

SMILES	pIC50
C=CCN1CC(=O)N2[C@@H](Cc3ccc(O)cc3)C(=O)N(Cc3cccc4c(-c5ccc(C(=O)Nc6cccc(OCc7ccccc7)c6)cc5)cn(C)c34)C[C@@H]2N1C(=O)NCc1ccccc1 [Compound D-20]	4.76
C=CCN1CC(=O)N2[C@@H](Cc3ccc(O)cc3)C(=O)N(Cc3cccc4c(C(=O)NC5CCN(C(C)=O)CC5)cn(C)c34)C[C@@H]2N1C(=O)NCc1ccccc1 [Compound F-64]	5.29
C=CCN1CC(=O)N2[C@@H](Cc3ccc(O)cc3)C(=O)N(Cc3cccc4c(C(=O)N5CCC(C(=O)N(C)CCN(C)C)CC5)cn(C)c34)C[C@@H]2N1C(=O)NCc1ccccc1 [Compound E-54]	5.30
C=CCN1CC(=O)N2[C@@H](Cc3ccc(O)cc3)C(=O)N(Cc3cccc4c(C(=O)N5CCC(NC(=O)CCO)CC5)cn(C)c34)C[C@@H]2N1C(=O)NCc1ccccc1 [Compound E-57]	5.12
C=CCN1CC(=O)N2[C@@H](Cc3ccc(O)cc3)C(=O)N(Cc3cccc4c(C(=O)NNCC(=O)OCC)cn(C)c34)C[C@@H]2N1C(=O)NCc1ccccc1 [Compound F-55]	5.21
C=CCN1CC(=O)N2[C@@H](Cc3ccc(O)cc3)C(=O)N(Cc3cccc4c(C(=O)N5CCN6CCN(CC)CC6C5)cn(C)c34)C[C@@H]2N1C(=O)NCc1ccccc1 (some centres unmarked) [Compound E-50]	5.30
C=CCN1CC(=O)N2[C@@H](Cc3ccc(O)cc3)C(=O)N(Cc3cccc4c(C(=O)NCCC(=O)OCC)cn(C)c34)C[C@@H]2N1C(=O)NCc1ccccc1 [Compound F-22]	5.45
C=CCN1CC(=O)N2C(CN(Cc3cccc4c(C(=O)Nc5ccc(NCCN(CC)CC)nc5)cn(C)c34)C(=O)[C@@H]2Cc2ccc(O)cc2)N1C(=O)NCc1ccccc1 (some centres unmarked) [Compound G-24]	5.34
C=CCN1CC(=O)N2C(Cc3ccc(O)cc3)C(=O)N(Cc3cccc4c(C(=O)Nc5ccc(N(CCN(CC)CC)CCN(CC)CC)nc5)cn(C)c34)CC2N1C(=O)NCc1ccccc1 (centres unmarked) [Compound G-26]	5.27
C=CCN1CC(=O)N2[C@@H](Cc3ccc(O)cc3)C(=O)N(Cc3cccc4c(C(=O)Nc5ccc(F)nc5)cn(C)c34)C[C@@H]2N1C(=O)NCc1ccccc1 [Compound G-1]	5.53
C=CCN1CC(=O)N2[C@@H](Cc3ccc(O)cc3)C(=O)N(Cc3cccc4c(C(=O)NCCN5CCOCC5)cn(C)c34)C[C@@H]2N1C(=O)NCc1ccccc1 [Compound F-25]	5.07
C=CCN1CC(=O)N2[C@@H](Cc3ccc(O)cc3)C(=O)N(Cc3cccc4c(C(=O)N5CCN(C6CCN(C)CC6)CC5)cn(C)c34)C[C@@H]2N1C(=O)NCc1ccccc1 [Compound E-64]	5.07
C=CCN1CC(=O)N2[C@@H](Cc3ccc(O)cc3)C(=O)N(Cc3cccc4c(C(=O)N5CCN(CCCCO)CC5)cn(C)c34)C[C@@H]2N1C(=O)NCc1ccccc1 [Compound E-12]	5.03
C=CCN1CC(=O)N2[C@@H](Cc3ccc(O)cc3)C(=O)N(Cc3cccc4c(C(=O)N(C)C)cn(C)c34)C[C@@H]2N1C(=O)NCc1ccccc1 [Compound F-1]	5.50
C=CCN1CC(=O)N2[C@@H](Cc3ccc(O)cc3)C(=O)N(Cc3cccc4c(C(=O)NCCOCCO)cn(C)c34)C[C@@H]2N1C(=O)NCc1ccccc1 [Compound F-7]	4.79
C=CCN1CC(=O)N2[C@@H](Cc3ccc(O)cc3)C(=O)N(Cc3cccc4c(C(=O)N5CC(N6CCOCC6)C5)cn(C)c34)C[C@@H]2N1C(=O)NCc1ccccc1 [Compound E-72]	5.22
C=CCN1CC(=O)N2[C@@H](Cc3ccc(O)cc3)C(=O)N(Cc3cccc4c(C(=O)N5CC6CCN(C)C6C5)cn(C)c34)C[C@@H]2N1C(=O)NCc1ccccc1 (some centres unmarked) [Compound E-68]	5.61
C=CCN1CC(=O)N2[C@@H](Cc3ccc(O)cc3)C(=O)N(Cc3cccc4c(C(=O)NCCCN5CCOCC5)cn(C)c34)C[C@@H]2N1C(=O)NCc1ccccc1 [Compound F-29]	5.96
C=CCN1CC(=O)N2[C@@H](Cc3ccc(O)cc3)C(=O)N(Cc3cccc4c(C(=O)N(CCO)CCNCCO)cn(C)c34)C[C@@H]2N1C(=O)NCc1ccccc1 [Compound F-20]	5.54
C=CCN1CC(=O)N2[C@@H](Cc3ccc(O)cc3)C(=O)N(Cc3cccc4c(C(=O)N5CCN(C(C)=O)CC5)cn(C)c34)C[C@@H]2N1C(=O)NCc1ccccc1 [Compound E-14]	4.96
C=CCN1CC(=O)N2[C@@H](Cc3ccc(O)cc3)C(=O)N(Cc3cccc4c(C(=O)N5CCN(S(C)(=O)=O)CC5)cn(C)c34)C[C@@H]2N1C(=O)NCc1ccccc1 [Compound E-15]	4.95
